This note sets out measurements from PubChem BioAssay (NCI).

Test systems include HL-60(TB) leukemia; ACHN renal; MOLT-4 leukemia; MDA-N; M14 melanoma; 786-0 renal; NCI/ADR-RES ovarian; UACC-257 melanoma; HS 578T breast; KM12 colon; HOP-92 NSCLC.
What all share (assay): DTP human tumour cell line panel, 48 h

SMILES strings stand for the structures.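 These data come from cells grown in 96-well plates and exposed to compound for 48 hours at five concentrations. TGI is the concentration that stops growth completely.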 Where only a bound is given, the exact number is not on record here.

Regarding `O=c1cc(N2CCOCC2)[nH]c(=O)n1-c1ccc(F)cc1`, the TGI with HL-60(TB) leukemia, with ACHN renal, in the assay with MOLT-4 leukemia, in the assay with MDA-N, in the assay with M14 melanoma and in the assay on 786-0 renal was > 100 µM in each case. The TGI in the assay with NCI/ADR-RES ovarian, in the assay with UACC-257 melanoma, in the assay with HS 578T breast and in the assay on KM12 colon was > 100 µM each time.
On to `O=C(NCC(=O)N1CCCC1C(=O)OC(=O)C1CCCN1C(=O)CNC(=O)OCc1ccccc1)OCc1ccccc1` (stereo not drawn), for which the concentration for total growth inhibition (TGI) in the assay with HL-60(TB) leukemia was 70.3 µM; in the assay with ACHN renal, > 100 µM; with MOLT-4 leukemia, 67.1 µM; with MDA-N, > 100 µM; in the assay with M14 melanoma, 45.7 µM; in the assay on 786-0 renal it was > 100 µM. In addition, the TGI is > 100 µM in the assay on NCI/ADR-RES ovarian; 52.1 µM in the assay on UACC-257 melanoma; > 100 µM in the assay with HOP-92 NSCLC; > 100 µM in the assay with HS 578T breast; > 100 µM in the assay on KM12 colon.
Consider `CCCn1c2ccccc2c2ccc3c(c21)C(=O)C=CC3=O`, for which the TGI is > 2.27 µM with HL-60(TB) leukemia; 3.59 µM in the assay on ACHN renal; 2.26 µM with MOLT-4 leukemia; 6.43 µM in the assay with MDA-N; > 6.11 µM in the assay with M14 melanoma; 3.27 µM with 786-0 renal. In addition, the concentration for total growth inhibition (TGI) in the assay on NCI/ADR-RES ovarian is > 6.93 µM; with UACC-257 melanoma it was 5.48 µM; in the assay with HOP-92 NSCLC, 3.8 µM; in the assay with HS 578T breast, > 10 µM; with KM12 colon, > 10 µM.
Turning to `Cc1cc(C)n(C(=C(C(Cl)=C(Cl)Cl)[N+](=O)[O-])n2nc(C)cc2C)n1`, the TGI with HL-60(TB) leukemia came to 3.92 µM; with ACHN renal, 8.8 µM; in the assay with MOLT-4 leukemia, 5 µM; in the assay with MDA-N it was 13.8 µM; in the assay with M14 melanoma it was 15.5 µM; in the assay with NCI/ADR-RES ovarian, 20.5 µM. Moreover, the TGI in the assay with UACC-257 melanoma was found to be 11.5 µM; in the assay on HOP-92 NSCLC, 6.78 µM; in the assay on HS 578T breast it was 20.6 µM; in the assay on KM12 colon, 13.9 µM.
With `CC1(C)CC(=O)c2[nH]c3ccccc3c2CC(=O)NCCc2cn1cn2`, the TGI in the assay on ACHN renal, with MOLT-4 leukemia, in the assay on MDA-N, in the assay with M14 melanoma, in the assay on 786-0 renal and with NCI/ADR-RES ovarian was > 100 µM throughout. The TGI in the assay with UACC-257 melanoma, with HOP-92 NSCLC, in the assay on HS 578T breast and with KM12 colon was > 100 µM in each case.
As for `CC(=O)Nc1ccc(C(=O)NN2C(=O)CSC2c2ccc([N+](=O)[O-])cc2)cc1` (stereo not drawn), the TGI in the assay on ACHN renal, in the assay on MOLT-4 leukemia, with MDA-N, in the assay with M14 melanoma, in the assay on 786-0 renal and in the assay with NCI/ADR-RES ovarian was > 100 µM in each case. Besides, the TGI in the assay with UACC-257 melanoma, in the assay with HOP-92 NSCLC, in the assay on HS 578T breast and in the assay with KM12 colon was > 100 µM throughout.
Regarding `O=C1C2CC=CCC2C(=O)N1n1c(Cc2ccc(Cl)cc2)n[nH]c1=O` (stereo not drawn), the TGI with HL-60(TB) leukemia, in the assay on ACHN renal, in the assay with MOLT-4 leukemia, in the assay on MDA-N, in the assay on M14 melanoma and in the assay on 786-0 renal was > 100 µM each time. Moreover, the TGI in the assay on NCI/ADR-RES ovarian, in the assay on UACC-257 melanoma, in the assay with HOP-92 NSCLC, with HS 578T breast and in the assay with KM12 colon was > 100 µM each time.
For the compound `O=C(C=P(c1ccccc1)(c1ccccc1)c1ccccc1)c1ccc(-c2cccc([N+](=O)[O-])c2)s1`, the TGI in the assay on HL-60(TB) leukemia is 59.6 µM; in the assay with ACHN renal, > 100 µM; in the assay on MOLT-4 leukemia it was 55.6 µM; with MDA-N, > 100 µM; in the assay with M14 melanoma, > 100 µM; in the assay on 786-0 renal it was > 100 µM. Moreover, the TGI in the assay with NCI/ADR-RES ovarian was > 100 µM; with HOP-92 NSCLC, 81.4 µM; with HS 578T breast it was > 100 µM; in the assay with KM12 colon, > 100 µM.
On to `CCOC(=O)c1c(-c2ccc(OC)cc2)c(C#N)c(=S)n(C2OC(COC(C)=O)C(OC(C)=O)C(OC(C)=O)C2OC(C)=O)c1-c1ccccc1` (stereo not drawn), for which the TGI in the assay with HL-60(TB) leukemia, in the assay with ACHN renal, with MOLT-4 leukemia, in the assay with MDA-N, in the assay with M14 melanoma and with 786-0 renal was > 100 µM in each case. In addition, the total growth inhibition concentration (TGI) in the assay on NCI/ADR-RES ovarian, in the assay on UACC-257 melanoma, in the assay on HOP-92 NSCLC, in the assay on HS 578T breast and with KM12 colon was > 100 µM throughout.
For the compound `Nc1ccc(-c2nc3cc(F)ccc3s2)cc1Cl`, the TGI is > 100 µM in the assay with HL-60(TB) leukemia; > 85 µM in the assay with ACHN renal; > 100 µM in the assay with MOLT-4 leukemia; > 100 µM in the assay with MDA-N; > 100 µM with M14 melanoma; > 100 µM with 786-0 renal. Further, the TGI in the assay with NCI/ADR-RES ovarian is > 100 µM; with UACC-257 melanoma it was > 100 µM; with HOP-92 NSCLC, > 78.9 µM; with HS 578T breast, > 90.4 µM; with KM12 colon, > 100 µM.
Regarding `Cc1c([N+](=O)[O-])ccc2c(NCCCN(C)C)ccnc12`, the TGI was > 100 µM in the assay with HL-60(TB) leukemia; > 100 µM with ACHN renal; > 100 µM with MOLT-4 leukemia; 28.4 µM in the assay on MDA-N; 29.9 µM with M14 melanoma; 89.3 µM in the assay on 786-0 renal. Further, the TGI in the assay on NCI/ADR-RES ovarian is > 100 µM; with UACC-257 melanoma, 31.4 µM; in the assay on HOP-92 NSCLC, 61.5 µM; in the assay on HS 578T breast, 74.1 µM; in the assay with KM12 colon, 32.1 µM.
As to `COc1cc(OC)c(-c2ccc(OCc3ccccc3)c3c(OC)cc(C)cc23)c2c1C(C)=N[C@H](C)C2`, the total growth inhibition concentration (TGI) was 4.4 µM in the assay with HL-60(TB) leukemia; 4.01 µM in the assay with ACHN renal; 4.28 µM with MOLT-4 leukemia; 4 µM in the assay on MDA-N; 3.79 µM in the assay on M14 melanoma; 3.8 µM with 786-0 renal. Besides, the TGI with NCI/ADR-RES ovarian was 3.92 µM; in the assay with UACC-257 melanoma it was 3.91 µM; in the assay on HOP-92 NSCLC it was 3.35 µM; in the assay with HS 578T breast, 4.41 µM; in the assay with KM12 colon, 4.07 µM.
Consider `COC(=O)CC(C#N)(OP1(=O)OC(c2ccccc2)C(C)N1C)c1ccccc1` (stereo not drawn), for which the concentration for total growth inhibition (TGI) in the assay with HL-60(TB) leukemia is 58 µM; with ACHN renal, 59.8 µM; in the assay on MOLT-4 leukemia it was 59.2 µM; in the assay on MDA-N, 75.4 µM; with M14 melanoma it was > 100 µM; in the assay on 786-0 renal it was 83 µM. Besides, the TGI in the assay with NCI/ADR-RES ovarian was > 100 µM; with UACC-257 melanoma, 46.4 µM; in the assay on HOP-92 NSCLC it was 85.8 µM; with HS 578T breast, > 100 µM; with KM12 colon it was 48.8 µM.

For orientation: TGI means the concentration giving total growth inhibition. A lower TGI goes with greater sensitivity of the cells.
